In a melting point compilation (Tetko et al.; mined from patent text by program, amines drawn as free bases though some values may be those of a salt) one finds melting point data, which are given here for 87 compounds.

Where only a bound is given, the exact number is not on record here.

For `C=C(C)C(=O)OCCCCOC(=O)/C=C/c1ccc(OC(=O)c2ccc(OC)cc2)cc1`, the melting point was 89 to 90 °C. With `COC(=O)c1nc(Cl)sc1-c1ccccc1` the figure was 63 to 65 °C; with `CC(C)(C)OC(=O)CCc1ccc(O)cc1CN`, 154 to 157 °C; with `Cc1coc2c1C(=O)CC(c1cccc(Cl)c1Cl)C2` (configuration not stated), 116 to 117 °C. Under `O=C(Nc1cccc(-n2nc(C(F)(F)F)cc2C(F)(F)F)c1)c1c(F)cccc1F` stands 142 to 143 °C; under `CC(C)(C)C(=O)CN1C(=O)C(NC(=O)Nc2cccc(C(=O)O)c2)CN(C(=O)C(C)(C)C)c2ccccc21` (configuration not stated), 231 to 233 °C. `CC(=O)c1cccc2c1ncn2-c1cccc([N+](=O)[O-])c1` displayed a melting point of 175 to 177 °C. `CCCCc1nc(C)c(CCC(=S)N(CC)CC)c(=O)n1Cc1ccc(-c2ccccc2-c2nnn[nH]2)cc1` came in with a melting point of 77.8 to 81.1 °C. In the case of `CCCC(=O)N[C@H]1CC[C@H](CCN2CCC(c3cccc4c3CCO4)CC2)CC1`, the melting point was 196 °C.

Take `CC(C)c1cc(-c2ccccn2)c(-c2ccc(F)cc2)n1CCC=O`: the melting point fell in the range of 120 to 122 °C. As to `COc1ccc(S(=O)(=O)Nc2cccc(F)c2/C=C/c2ccncc2)cc1`, the melting point lay in the range of 177 to 178 °C. Take `Cc1cccc(Cl)c1C(=O)N[C@@H](Cc1ccc(-c2c(C(F)(F)F)n(C)c(=O)n(C)c2=O)cc1)C(=O)O`: the melting point lay within 243 to 247 °C. Under `O=C(Nc1ccc(Oc2ccccc2)cc1)Nc1ccc(C(F)(F)F)cc1` stands 211 to 213 °C; under `ClCCc1nc2c(ccc3ccccc32)o1`, 80 to 82 °C. Turning to `COc1ccc(N2CCN(c3ccc(-n4cnn([C@H](C)[C@@]5(c6ccc(F)cc6F)CO5)c4=O)cc3)CC2)cc1`, the melting point was 175 to 176 °C. Compound `N#CCC(=O)c1ccccc1Cl` registered a melting point of 56 to 58 °C. In the case of `CN(C)C(=O)CCCCCCCCCCCCO`, the melting point was in the range of 69 to 71 °C. For `O=Cc1cc(-c2ccccc2)c2ccc3c(-c4ccccc4)cc(C=O)nc3c2n1`, the melting point fell in the range of 165 to 170 °C. The compound `COCCN1CCC(c2ccc(C(=O)NC3(C(=O)NCC#N)CCCCC3)cc2)CC1` registered a melting point of 160 to 162 °C. Consider `CC(=O)OCc1ccc(N)cc1`, for which the melting point was 83 to 84 °C.

Compound `CCN(CC)C(=O)c1cc2ccsc2c(-c2ccccc2Cl)n1` registered a melting point of 86 °C. `O=C(O)c1cc(S(=O)(=O)NCCc2ccc(Cl)cc2)ccc1Cl` had a melting point of 176 to 178 °C. Consider `Cc1cc(-c2ccc(O)cc2)ccc1C=O`, for which the melting point lay in the range of 161 to 162 °C. Take `O=c1c(-c2cccc(Cl)c2)coc2c(O)c(O)ccc12`: the melting point was found to be 258 °C. On to `O=C1CCC(c2c[nH]c3cc(F)ccc23)CC1`, for which the melting point was in the range of 102 to 105 °C.

As to `NC(=O)c1cccc(C=CC(=O)O)c1`, the melting point is > 260 °C. Compound `Cc1cc(N)cc(C)c1O` came in with a melting point of 135 to 137 °C. The compound `O=C1OC(=O)c2cc3cc(Cl)ccc3cc21` returned a melting point of 220 °C. Under `COCOc1ccccc1-c1cc(-c2cc([N+](=O)[O-])ccc2Cl)c(C#N)c(NC(=O)c2cccs2)n1` stands 208 to 209 °C. With `CCCCCCNC(=O)Oc1ccc2c(c1)CCCN2C` the figure was 50 °C; with `CCCCN1C(=O)CC(C2C(=O)N(CCCC)C(=O)C2c2cc(C(C)(C)C)c(O)c(C(C)(C)C)c2)C1=O` (configuration not stated), 151 to 153 °C; with `O=C1CCCc2nc3ccccc3c(NCc3cccc(C(F)(F)F)c3)c21`, 147 to 149 °C. In turn, `CC(=O)SCC(C(=O)N[C@@H](CC(C)C)C(=O)O)C(F)(F)F` (some centres not stated) displayed a melting point of 150 to 152 °C. `CCn1cc(-c2ccc([C@H](C)N3CC[C@](CC(C)(C)O)(c4ccc(F)cc4)OC3=O)cc2)ccc1=O` came in with a melting point of 172 to 174 °C.

In turn, `C=CCOc1ccc(C(=O)C=Cc2ccc(OC)c(OC)c2)cc1` gave a melting point of 74.5 to 75 °C. On to `CC(C)CNC(=O)C1=C(C(=O)Nc2cc(OC3CCC(C)C3)c(Cl)cc2F)CCCC1` (configuration not stated), for which the melting point was 144 to 147 °C. As for `O=C(O)c1cn(C2CC2)c2c(F)c(N3CC4CC3CN4Cc3ccc([N+](=O)[O-])cc3)c(F)cc2c1=O` (configuration not stated), the melting point fell in the range of 177 to 182 °C.

The compound `O=C(O)c1cn(C2CC2)c2cc(N3CCC(c4cccnc4)C3)c(F)cc2c1=O` (configuration not stated) yielded a melting point of 233 to 236 °C. With `CC(=O)Nc1cccc(CNC(=O)[C@H]2N(C(=O)[C@@H](O)[C@H](Cc3ccccc3)NC(=O)c3cccc(O)c3C)CSC2(C)C)c1` the figure was 145 to 147 °C; with `Oc1ccc(-c2cn(-c3ccc(C(F)(F)F)cc3F)nn2)cc1`, 215 to 216 °C; with `N#CCCNC(=O)c1cccc(-c2cccc3nn(Cc4ccccc4F)cc23)c1`, 165 to 166 °C. With `Nc1sc2c(c1C(=O)c1ccc(Cl)cc1)CCN(C(=O)Nc1ccccc1)C2` the figure was 216 to 217 °C; with `CC(C)(C)OC(=O)N1C[C@@H]2OCc3c(-c4cccc(F)c4)nnn3[C@H]2C1`, 249 to 250 °C. In turn, `CC(=O)N(c1ccc(O)cc1)c1ccc2cc(O)ccc2c1` registered a melting point of 255 °C.

In turn, `COC(=O)CSCC1Cn2cc(C(=O)NCc3ccc(Cl)cc3)c(=O)c3cc(CN4CCOCC4)cc(c32)O1` (configuration not stated) displayed a melting point of 182 to 183 °C. In turn, `COc1cc2c(Nc3ccc(C)c(O)c3)ncnc2cc1OCc1ccncn1` displayed a melting point of 290 to 291 °C. With `O=C(NC1CCCCCCC1)NS(=O)(=O)c1ccc(CCNC(=O)N2CCCCC2=O)cc1`, the melting point fell in the range of 170 to 172 °C. Compound `CCOC(=O)c1ccc(NC2(C(N)=O)CCCCC2)cc1` came in with a melting point of 155 to 157 °C.

In turn, `O=P(c1ccccc1)(c1ccccc1)c1cc(P(=O)(c2ccccc2)c2ccccc2)ncn1` came in with a melting point of 213 to 215 °C. The compound `COC(=O)c1cc(C)cc2c1OCc1ccccc1C2C(=O)Nc1c(C(C)C)cccc1C(C)C` (configuration not stated) yielded a melting point of 136 to 138 °C. Regarding `N#Cc1ccc2[nH]c3ccccc3c2c1`, the melting point fell in the range of 180 to 181 °C.

`CC[C@H](NC(=O)OC(C)(C)C)c1nc2c(C(F)(F)F)cccc2c(=O)o1` showed a melting point of 136 to 138 °C. With `Cc1noc(NS(=O)(=O)c2ccccc2-c2ccccc2)c1Br` the figure was 145 to 147 °C. With `O=NSC1(C2OCCCO2)CCCCC1` the figure was 34 to 36 °C; with `CC(C)C[C@@H](C(=O)N1CCN(C(c2ccc(F)cc2)c2ccc(F)cc2)CC1)N1CCOCC1`, 55 to 63 °C; with `O=C(O)/C=C/c1cn(Cc2ccc(OCc3csc(-c4ccccc4)n3)cc2)nc1-c1cccs1`, 137 to 138 °C. In turn, `Cc1cc(=O)n(CCBr)o1` returned a melting point of 39 to 40 °C. As to `CCOC(=O)C1=C(C)NC(c2c(F)cc(F)cc2F)=NC1c1ccc(F)cc1Cl` (configuration not stated), the melting point lay within 184 to 186 °C. Take `CCON=C(CC)C1=C(OC(=O)c2ccccc2)CC(c2c(C)cc(C)cc2C)CC1=O` (configuration not stated): the melting point was in the range of 94 to 95.5 °C. As to `Cc1cc(C2=C(C=CC3CC(O)CC(=O)O3)C(C)(C)CC(OC(=O)Nc3ccccc3)C2)ccc1F` (configuration not stated), the melting point fell in the range of 73 to 75 °C. Under `CCc1noc(CN2C(=O)c3ccccc3C2=O)n1` stands 106 to 107 °C; under `Cc1cc2[nH]c(CC(C)(C)N3C(=O)c4ccccc4C3=O)nn2n1`, 197 to 199 °C. For the compound `Cc1c(C(=O)O)c(=O)c(-c2ccccc2)cn1C`, the melting point lay in the range of 227 to 228 °C. `Cc1cnccc1-c1sc(NC(=O)c2ccncc2)nc1-c1ccco1` registered a melting point of 156 to 157 °C. Compound `N#CC(C#N)=CN(N=C(C#N)C#N)c1cccc(Cl)c1` had a melting point of 113 to 115 °C. Consider `O=C(CCl)Nc1cc(C(=O)NC(CO)CO)cc(C(=O)NC(CO)CO)c1`, for which the melting point fell in the range of 222 to 224 °C. As to `COc1ccc2ncc(C#N)c(Nc3ccc4nn[nH]c4c3)c2c1`, the melting point is > 250 °C. `Cc1cc2ncc(C(=O)O)c(N(C)S(=O)(=O)c3ccc(Oc4ccncc4)cc3)n2n1` showed a melting point of 246 to 248 °C. Compound `CC(C)N1CCN(S(=O)(=O)c2ccc(NC(=O)Nc3ccc(C(F)(F)F)cc3)cc2)CC1` returned a melting point of 208 to 212 °C. `O=Cc1ccccc1OCC(=O)NCCO[N+](=O)[O-]` yielded a melting point of 99 to 101 °C.

`C=C(CC(O)C(=O)OCC)CC(NC=O)(C(=O)OCC)C(=O)OCC` (configuration not stated) displayed a melting point of 68 °C. `O=C(NC/C=C/c1ccccc1)c1ccoc1` had a melting point of 115 °C. Under `CCN(CC)c1ccc(C=NNC(=O)c2ccc(O)cc2)cc1` stands 228 °C. Take `CCOc1cc(-c2ccc3c(c2)C=C(C(=O)Nc2ccc(CN(C)C4CCOCC4)cc2)CCS3(=O)=O)ccc1C#N`: the melting point was 244 to 247 °C. As to `N#Cc1ccc(N(Cc2ccc3c(c2)NS(=O)(=O)O3)n2ccnc2)cc1`, the melting point is 230 °C. Regarding `O=CNc1nc(C(=NOC2CCCCC2)C(=O)O)cs1`, the melting point was > 230 °C. Under `O=C(O)[C@@H]1CN(C(=O)N(c2ccccc2)c2cccc(Cl)c2)CCN1C(=O)N(c1ccccc1)c1cccc(Cl)c1` stands 200 to 203 °C; under `O=S(=O)(Nc1nc(Cl)cnc1OCc1ccco1)c1ccc(Cl)s1`, 130 to 133 °C. Consider `CC(=O)OC1CSC(Oc2cccc(-c3ccc(Cl)nc3)c2)C(OC(C)=O)C1OC(C)=O` (configuration not stated), for which the melting point was 129 °C. Turning to `COCCOc1cc(OCCN2CCCC2)c2c(=O)[nH]c(-c3cc(C)nc(C)c3)nc2c1`, the melting point was 60.4 to 62.3 °C. As to `CCOC(=O)Cc1c(-c2ccc(Cl)cc2)nn2cccnc12`, the melting point was in the range of 221 to 225 °C. In turn, `CC(=O)c1cc2c(cc1OCCCCCBr)OC(C(=O)OC(C)C(C)O)CC2` (configuration not stated) showed a melting point of 80 to 83 °C. For the compound `O=c1ccn2c(n1)COc1ccc(Cl)cc1-2`, the melting point lay within 222 to 224 °C.

`CONC(=N)NC(=O)Nc1c(C)cccc1C` came in with a melting point of 78 to 80 °C.

`NC(=O)Cc1cc(Oc2ccc3c(ccn3C(=O)Nc3ccc(N4CCOCC4)c(C(F)(F)F)c3)c2)ncn1`: the melting point is 272 to 275 °C. Under `CCn1c(=O)c2c(nc(/C=C/c3ccc(OC)c(C)c3C)n2C)n(CC)c1=O` stands 208 °C; under `CC(=O)CC1NC(=O)c2sccc2-n2cccc21` (configuration not stated), 268 °C.

As usually defined, the melting point is the temperature, or range, at which the solid turns liquid.
